Assay [1] has as its system B. subtilis DSM 10. Description: microbe, parasite or virus in culture. In kind it is cell-based. The method, boiled down: (§1)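 Broth microdilution in cation-adjusted MHB II with twofold serial compound dilutions; final inoculum 5 × 10^5 CFU mL^−1, incubated 20 h at 37 ± 1 °C. MIC = lowest concentration preventing visible growth. β-Lactamase inhibitors were added at fixed levels (clavulanic acid 2 mg L^−1, avibactam 4 mg L^−1).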

For assay [2], the system named is E. casseliflavus ATCC 700327. Description: microbe, parasite or virus in culture. In kind it is cell-based. The method, boiled down: as §1
Assay [3] has as its system S. aureus ATCC 25923 (MSSA). As to the kind of experiment: microbe, parasite or virus in culture. In kind it is cell-based. The method, boiled down: as §1
Assay [4] deals with S. saprophyticus ATCC 15305. Description: microbe, parasite or virus in culture. In kind it is cell-based. The method, boiled down: as §1
The subject of assay [5] is K. pneumoniae Tü20‐036 (clinical isolate). As to the kind of experiment: microbe, parasite or virus in culture. In kind it is cell-based. The method, boiled down: as §1
Assay [6] relates to S. aureus NCTC 10442 (MRSA). Description: microbe, parasite or virus in culture. In kind it is cell-based. The method, boiled down: as §1
Assay [7] relates to E. faecalis ATCC 29212. As to the kind of experiment: microbe, parasite or virus in culture. In kind it is cell-based. The method, boiled down: as §1
Assay [8] relates to E. coli Tü20‐025 (clinical isolate). Description: microbe, parasite or virus in culture. In kind it is cell-based. The method, boiled down: as §1
For assay [9], the system named is CTZ‐resistant P. aeruginosa (n = 2). In kind it is cell-based. As for the experimental part:
The minimum inhibitory concentration (MIC) of the β‐lactam–peptide conjugates was determined by broth microdilution as previously described.^[ [17] ^] Briefly, in cation‐adjusted MHB II medium, a twofold serial dilution of the compounds was prepared in 96‐well round‐bottom polystyrene or polypropylene microtiter plates with each well containing 50 µL. The plates were inoculated with 50 µL bacterial suspension and the final inoculum, in a total volume of 100 µL, contained 5 × 10^5 CFU mL^−1. The microplates were incubated for 20 h at 37 ± 1 °C. The lowest concentration preventing visible bacterial growth was considered the MIC value. For susceptibility testing of combinations of β‐lactamase‐inhibitors with either a β‐lactam antibiotic or a β‐lactam–peptide conjugate, fixed concentrations of the inhibitors according to the EUCAST (European Committee on Antimicrobial Susceptibility Testing) guidelines (clavulanic acid = 2 mg L^−1, avibactam = 4 mg L^−1) were used.

The target of assay [10] is PBP1A/B (Bacillus subtilis, UniProt P39793). As to the kind of experiment: Gel‐based PBP affinity assay (Bocillin FL competition). In kind it is binding. The settings on record: B. subtilis membrane fractions, competition with Bocillin FL penicillin. How it is done: (§2) B. subtilis DSM 10 and E. faecalis ATCC 51 299 (equal to DSM 12 956) membrane protein fractions were extracted according to the protocol of Dean et al. with minor modifications.^[ [34] ^] From a growing overnight bacterial culture, 3 L of LB (Luria‐Bertani) medium or TSB (tryptic soy broth) were inoculated with B. subtilis DSM 10 and E. faecalis ATCC 51 299, respectively, to obtain an OD600 = 0.3. The cultures were grown to an OD600 = 0.6–0.8 while shaking at 37 °C and cells were harvested by centrifugation at 4000 g for 30 min at 4 °C. The resulting pellet was washed twice with pre‐cooled PBS and resuspended in 30 mL of ice‐cooled PBS. The suspension was sonicated on ice (10 cycles of 30 s at 50% power for B. subtilis; 12 cycles of 30 s at 80% power for E. faecalis; 2 min intervals between cycles) using an Omni Ruptor 4000 ultrasonic homogenizer (Omni International, Kennesaw, GA, USA). Afterwards, the suspension was centrifuged at 7000 g for 10 min at 4 °C. The clear supernatant was transferred into a 50 mL polypropylene tube and centrifuged in a Beckman Coulter centrifuge equipped with a JA‐20 fixed‐angle rotor (Beckman Coulter, Krefeld, Germany) at 50 000 g for 1 h at 4 °C. The resulting pellet was washed with ice‐cold PBS and centrifuged a second time. The pellet was resuspended in 2 mL PBS and aliquots were stored at −80 °C. The protein content was determined using Bradford reagent (VWR International, Darmstadt, Germany) and Pierce BCA (bicinchoninic acid) protein assay kits (Thermo Fisher Scientific, Waltham, MA, USA) for membrane fractions of B. subtilis and E. faecalis, respectively.
Sequence of PBP1A/B (P39793 1-662): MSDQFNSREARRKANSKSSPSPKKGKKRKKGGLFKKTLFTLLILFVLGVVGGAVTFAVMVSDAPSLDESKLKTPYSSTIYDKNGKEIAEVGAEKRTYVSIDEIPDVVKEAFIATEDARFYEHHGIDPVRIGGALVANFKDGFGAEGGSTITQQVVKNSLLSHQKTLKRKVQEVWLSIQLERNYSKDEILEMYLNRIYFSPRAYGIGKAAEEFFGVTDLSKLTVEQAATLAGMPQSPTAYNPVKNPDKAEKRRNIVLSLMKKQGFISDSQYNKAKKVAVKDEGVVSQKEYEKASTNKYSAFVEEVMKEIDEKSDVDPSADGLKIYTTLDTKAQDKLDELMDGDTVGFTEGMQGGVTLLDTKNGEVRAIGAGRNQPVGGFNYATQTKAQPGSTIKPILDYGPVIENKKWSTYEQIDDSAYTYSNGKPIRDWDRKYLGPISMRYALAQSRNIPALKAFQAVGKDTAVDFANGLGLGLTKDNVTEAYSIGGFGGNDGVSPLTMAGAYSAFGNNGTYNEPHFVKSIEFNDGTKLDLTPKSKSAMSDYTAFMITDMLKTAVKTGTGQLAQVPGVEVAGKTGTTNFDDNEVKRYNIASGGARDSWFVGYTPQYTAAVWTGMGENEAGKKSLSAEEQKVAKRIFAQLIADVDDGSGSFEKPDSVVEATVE
(§3) Each dilution was combined with B. subtilis (30 µg) or E. faecalis (15 µg) extracted membrane fractions. As reference samples, membrane fractions incubated with only PBS were prepared. Reaction mixtures were incubated for 20 min at 37 °C while shaking at 400 rpm. Next, Bocillin FL penicillin (Thermo Fisher Scientific, Waltham, MA, USA) was added to obtain a final concentration of 20 µM in the mixture. Samples were incubated for 30 min at 37 °C while shaking at 400 rpm. To denature the samples, 4× Laemmli sample buffer (Bio‐Rad Laboratories, Feldkirchen, Germany) was added, and the samples incubated for 10 min at 70 °C. Afterwards, the samples were centrifuged for 5 min at 13 000 rpm. Samples were separated by SDS‐PAGE using a 10% Tris‐glycine gel for 100 min at 180 V. The bands were visualized using a Typhoon FLA 9500 imager (GE Healthcare, Chicago, IL, USA) with excitation at 473 nm. The gel images were analyzed using ImageJ software. Brightness and contrast were adjusted to improve the signal‐to‐noise ratio and the background signal was subtracted over the whole image. Next, integrated density values of the gel bands were measured and Bocillin FL penicillin labeling of each PBP in antibiotic‐treated samples were set in proportion to the reference sample. IC50 values were calculated with GraphPad Prism software (version 8.0.1) using inhibitor versus normalized response variable slope and least‐squares fit. […] The mean was calculated using the IC50 values of at least two independent assays for each antibiotic.

Assay [11] concerns the target T1, PBP2B (Bacillus subtilis, UniProt Q07868).
T1 construct: endogenous in cells; host or cells: B. subtilis DSM 10, extracted membrane protein fraction
The assay is described as above. In kind it is binding. The note with it: B. subtilis membrane fractions, competition with Bocillin FL penicillin. As for the experimental part:
as §2, §3

Assay [12] concerns the target T2, PBP4 (Bacillus subtilis, UniProt P40750).
T2 construct: endogenous in cells; host or cells: B. subtilis DSM 10, extracted membrane protein fraction
Described as above. In kind it is binding. The note with it: B. subtilis membrane fractions, competition with Bocillin FL penicillin. As for the experimental part:
as §2, §3

The values below come from paper PMC11672299, “Conjugation of Polycationic Peptides Extends the Efficacy Spectrum of β‐Lactam Antibiotics” (Advanced Science, 2024).

Structures are written as SMILES. Like-named read-outs stand apart in the source and are kept apart here.

T2 sequence (P40750 22-624): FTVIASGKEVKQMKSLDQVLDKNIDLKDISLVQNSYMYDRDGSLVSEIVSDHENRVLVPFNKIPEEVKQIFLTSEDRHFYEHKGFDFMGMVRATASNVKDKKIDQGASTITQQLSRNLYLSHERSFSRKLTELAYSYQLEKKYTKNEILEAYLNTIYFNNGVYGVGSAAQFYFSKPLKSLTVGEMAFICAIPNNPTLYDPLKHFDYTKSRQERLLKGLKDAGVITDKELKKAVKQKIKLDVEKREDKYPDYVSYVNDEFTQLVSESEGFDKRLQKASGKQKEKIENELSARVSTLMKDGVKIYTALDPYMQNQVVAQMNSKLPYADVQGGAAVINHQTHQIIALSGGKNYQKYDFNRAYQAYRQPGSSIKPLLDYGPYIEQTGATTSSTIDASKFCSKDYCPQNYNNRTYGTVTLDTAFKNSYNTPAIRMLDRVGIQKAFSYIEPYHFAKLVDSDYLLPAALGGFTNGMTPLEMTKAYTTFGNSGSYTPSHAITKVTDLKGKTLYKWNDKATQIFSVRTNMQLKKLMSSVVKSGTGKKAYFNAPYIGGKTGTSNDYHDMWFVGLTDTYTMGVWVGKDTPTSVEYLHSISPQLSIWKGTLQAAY
T1 sequence (Q07868 whole entry): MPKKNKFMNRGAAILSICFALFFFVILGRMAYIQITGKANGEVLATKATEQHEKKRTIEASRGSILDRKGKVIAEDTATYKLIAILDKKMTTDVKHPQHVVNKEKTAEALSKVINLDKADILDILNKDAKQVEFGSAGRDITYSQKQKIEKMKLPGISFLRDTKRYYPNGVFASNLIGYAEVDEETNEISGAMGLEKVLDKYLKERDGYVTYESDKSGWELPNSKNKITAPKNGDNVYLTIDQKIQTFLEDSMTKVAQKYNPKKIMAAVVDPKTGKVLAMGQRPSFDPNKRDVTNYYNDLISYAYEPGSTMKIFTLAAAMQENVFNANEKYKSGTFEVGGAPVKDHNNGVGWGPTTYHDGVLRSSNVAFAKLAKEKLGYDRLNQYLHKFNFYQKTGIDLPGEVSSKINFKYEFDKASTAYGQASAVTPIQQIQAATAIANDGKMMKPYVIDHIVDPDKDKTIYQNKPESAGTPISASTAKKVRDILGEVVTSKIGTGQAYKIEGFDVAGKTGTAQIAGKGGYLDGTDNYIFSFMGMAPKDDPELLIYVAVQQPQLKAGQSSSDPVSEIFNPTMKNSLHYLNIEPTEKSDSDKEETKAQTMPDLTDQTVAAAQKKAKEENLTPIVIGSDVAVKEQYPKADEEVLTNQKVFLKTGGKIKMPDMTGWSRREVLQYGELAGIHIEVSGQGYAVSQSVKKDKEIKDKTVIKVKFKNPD

With `CC(C)(O/N=C(\C(=O)N[C@@H]1C(=O)N2C(C(=O)[O-])=C(C[n+]3ccccc3)CS[C@H]12)c1csc(N)n1)C(=O)O` [CTZ, ceftazidime, reference compound], the MIC is 8 µg/mL in assay [1] (Bacillus subtilis, DSM10, B. subtilis DSM 10, median (n = 3), read-out: MIC); > 2050 µg/mL in assay [2] (Enterococcus casseliflavus, ATCC700327, E. casseliflavus ATCC 700327, median (n = 3), read-out: MIC); 16 µg/mL in assay [3] (Staphylococcus aureus, S. aureus ATCC 25923 (MSSA), median (n = 3), read-out: MIC); 32 µg/mL in [4] (Staphylococcus saprophyticus, ATCC15305, S. saprophyticus ATCC 15305, median (n = 3), read-out: MIC); 0.125 µg/mL in assay [5] (Klebsiella pneumoniae); 16 µg/mL in assay [6] (Staphylococcus aureus, S. aureus NCTC 10442 (MRSA), median (n = 3), read-out: MIC). Further, the MIC in [7] (Enterococcus faecalis, ATCC29212, E. faecalis ATCC 29212, median (n = 3), read-out: MIC) turned out to be 4 µg/mL; in assay [8] (Escherichia coli, E. coli Tü20‐025, median (n = 3), read-out: MIC) it was 2 µg/mL. For the same compound, in assay [9] (CTZ‐resistant P. aeruginosa (n = 2)), the MIC range was 32 to 64 µg/mL. In addition, the “binding to PBP1A/B” value in assay [10] is “strong binding”. In addition, in [11], the “binding to PBP2B” value was “strong binding”. For the same compound, the “binding to PBP4” value in assay [12] was “strong binding”.
With `CC(C)(O/N=C(\C(=O)N[C@@H]1C(=O)N2C(C(=O)[O-])=C(C[n+]3ccccc3)CS[C@H]12)c1csc(N)n1)C(=O)NCCCCCCN1C(=O)CC(SC[C@H](NC(=O)[C@H](CCCNC(=N)N)NC(=O)[C@H](CCCNC(=N)N)NC(=O)[C@H](CCCNC(=N)N)NC(=O)[C@H](CCCNC(=N)N)NC(=O)[C@H](CCCNC(=N)N)NC(=O)[C@@H](N)CCCNC(=N)N)C(N)=O)C1=O` (stereo partly drawn) [CTZ-R6], the MIC was found to be 0.008 µg/mL in [1] (DSM 10, 20 h); 0.25 µg/mL in assay [2] (ATCC 700327, 20 h); 4 µg/mL in assay [3] (ATCC 25923, 20 h); 0.02 µg/mL in assay [4] (ATCC 15305, 20 h); 0.0625 µg/mL in assay [5] (Tü20‐036 (clinical isolate, 20 h)); 2 µg/mL in assay [6] (NCTC 10442, 20 h). Moreover, the MIC in [7] (ATCC 29212, 20 h) is <0.004 µg/mL; in [8] (Tü20‐025 (clinical isolate, 20 h)), 0.5 µg/mL. The MIC range in assay [9] (CTZ‐resistant (n = 2, 20 h)) was in the range of 2 to 16 µg/mL. For the same compound, in assay [10], the “binding to PBP1A/B” value is reported as “decreased in comparison to CTZ”. In addition, the “binding to PBP2B” value in [11] is “showed affinity”. In [12], the “binding to PBP4” value is on record as “decreased in comparison to CTZ”.
